For this assay, the system named is p53 protein. In words: X-ray irradiation-induced p53 protein expression in ES cells, western blotting. The settings on record: X-ray irradiated, western blotting with antibody against p53. Type of assay: cell-based, mouse. (In general: A western blot detects proteins with antibodies after separation by electrophoresis.)

Description: The analysis was done by western blotting.
ES cell lines in which one or both Cds1 (Chk2) alleles were inactivated (Cds1 (Chk2)+/− and Cds1 (Chk2)−/−) were treated with trypsin and counted. Then, a constant number of ES cells were plated in 6-well plates in which feeder cells had been planted in advance. MEF (mouse embryonic fibroblast) was used as feeder cells. The cells were treated with X ray and cultured in an CO2 incubator for 6 hours. Then, a cell extract was prepared, the proteins were separated by SDS-PAGE, and transferred to a PVDF membrane. p53 protein was quantified by conducting western blotting using an antibody against p53.

`Cn1c(=O)c2c(ncn2C)n(C)c1=O` [caffeine]: the “induction of p53 expression after irradiation” value (Cds1-/- ES cells) is “inhibited” and the “induction of p53 expression after irradiation” value (wild type ES cells) is on record as “inhibited”.

(Values after US20030226158A1, “Cds1 knockout cells and mice, and their utilization” (priority 2000, published 2003).)
